Data: ChEMBL document CHEMBL4190354, “A Realistic View on "The Essential Medicinal Chemistry of Curcumin"” (ACS Med Chem Lett, 2017)

How the values were obtained:
[1] = Elimination half life in Sprague-Dawley rat at 500 mg/kg, po by LC-MS/MS analysis; type: ADME, organism-based; settings: in vivo, read-out: beta t1/2
[2] = Elimination half life in Sprague-Dawley rat at 10 mg/kg, iv by LC-MS/MS analysis; type: ADME, organism-based; settings: in vivo, read-out: beta t1/2

Compound: COc1cc(/C=C/C(=O)CC(=O)/C=C/c2ccc(O)c(OC)c2)ccc1O [CURCUMIN]
- half-life [1]: 44.5 min
- half-life [2]: 28.1 min
